# Assay results reported in US20230145868A1, “UREA INHIBITORS OF MICRO-RNA” (Board of Regents, The University of Texas System, priority 2020, published 2023).
# What was measured:
# miR-10b [1] = assay: Luciferase reporter assay of miR-10b inhibition, MDA-MB-231 cells; format: cell-based; settings: Homo sapiens, MDA-MB-231, 48 h
# Description: (§1) To identify miR-10b inhibitors, a luciferase reporter system was designed with complementary oligonucleotides for miR-10b.This luciferase reporter would repress Renilla luciferase signal in the presence of a functional mature miR-10b. However, in the presence of a small molecule that can inhibit mature miR-10b expression or affect its downstream function, the luciferase expression is restored again.
# (§2) The PsiCHECK™-2 luciferase reporter vector was acquired from Promega™, Complementary oligonucleotides for hsa-miR-10b were designed based on the mature miRNA sequence and obtained from Thermo Fisher Scientific. In the design of the microRNA target sequence, several base pairs were added to have two different restriction sites recognizable by the enzyme SgfI at one side, and PmeI on the other (present in the vector as well). In addition, the insert was designed with a restriction site for SacI enzyme in order to have an additional site to digest the vector when monitoring colonies for the presence/absence of the insert. The designed oligonucleotides were annealed as follows: Complementary strands were mixed at a 1:1 molar ratio in a micro centrifuge tube. The mixture was diluted to a final concentration of 1 pmol/μl with a buffer solution of 10 mM Tris, 1 mM EDTA, and 50 mM NaCl (pH 8.0). Mixes were incubated at 95° C. for 5 min, and then the heat was reduced gradually for 70 min, until reaching 4° C. The annealed oligonucleotides were digested along with the PsiCHECK™2 vector with SgfI and PmeI and ligated at the 3′-UTR (downstream) of the Renilla luciferase reporter gene in the PsiCHECK™-2vector. Insert sequences were further confirmed in two ways: enzymatic digestion and sequencing.
# (§3) MCF7 cells were seeded 24 h prior to transfection in 96 well plates (2.0×10^4 cells/well). For testing the sensitivity of the assay, antagomiRs and pre-miRs against miR-10b were used at a final concentration of 100 nM. For testing small molecule miRNA inhibitors, the compounds of interest were added to a final concentration of 10 μM. The assay was done in MCF7 or MDA-MB-231 cells at approximately 60% confluence using Lipofectamine in Opti-Mem media with the final vector concentration of 250 ng/mL. All transfections were performed in triplicate for statistical analysis. The cells were incubated at 37° C. for 6 h, followed by replacement of the transfected media with fresh media. After 48 h incubation, the media was removed, and cells were lysed and assayed with a Dual Luciferase Assay Kit (Promega) using a Vi-Tech luminometer. The ratio of Renilla to firefly luciferase expression was calculated for each of the triplicates.
# miR-10b [2] = assay: Luciferase reporter assay of miR-10b inhibition, MCF7 cells; format: cell-based; settings: Homo sapiens, MCF7, 48 h
# Description: as §1, §2, §3
# [3] = Microsomal stability assay, human; format: in vitro ADME; settings: pH 7.4; human liver microsomes; 1 μM test compound; unit printed in b356 only
# Protocol: (§4) The liver microsomal incubation mixture was composed of liver microsomes (with a concentration of 0.5 mg microsomal protein/ml), the test compound (1 μM), MgCl2 (3 mM), EDTA (1 mM) in potassium phosphate buffer (100 mM, pH 7.4). Control substrates used were Midazolam and Ketanserin. The reaction was initiated with the addition of an NADPH regeneration solution (1.3 mM NADPH) and maintained at 37° C. with shaking. At five sequential time points ranging from 0 to 45 min, aliquots of the mixture (50 μL) were removed and quenched with acetonitrile (100 μL) containing an internal standard control (imipramine) Samples were analyzed after vortexing and centrifugation by liquid chromatography-mass spectrometry (LC-MS/MS). The in vitro t1/2 was then calculated and clearance followed literature.
# [4] = Microsomal stability assay, rat; format: in vitro ADME; settings: rat, liver microsomes, pH 7.4, rat liver microsomes; 1 μM test compound; unit printed in b356 only
# Protocol: as §4
# [5] = Microsomal stability assay, mouse; format: in vitro ADME; settings: mouse, liver microsomes, pH 7.4, mouse liver microsomes; 1 μM test compound; unit printed in b356 only
# Protocol: as §4
smiles,measurement,setting,value
"Cc1ccc(F)c(NC(=O)Nc2ccc(-c3cccc4[nH]nc(N)c34)cc2)c1 [Example 10, 1-(4-(3-amino-1H-indazol-4-yl)phenyl)-3-(2-fluoro-5-methylphenyl)urea, reference compound]",fold induction at 10 µM,"miR-10b [1]; Table 5, MDA-MB-231, 10 μM compound, vs negative control (DMSO), mean of triplicate, read-out: n-fold increase in luciferase expression, Mean",1.87
same,fold induction at 10 µM,"miR-10b [1]; Table 5, MDA-MB-231, 10 μM compound, vs negative control (DMSO), replicate #1, read-out: n-fold increase in luciferase expression, #1",1.51
same,fold induction at 10 µM,"miR-10b [1]; Table 5, MDA-MB-231, 10 μM compound, vs negative control (DMSO), replicate #2, read-out: n-fold increase in luciferase expression, #2",1.14
same,fold induction at 10 µM,"miR-10b [1]; Table 5, MDA-MB-231, 10 μM compound, vs negative control (DMSO), replicate #3, read-out: n-fold increase in luciferase expression, #3",2.95
same,fold induction at 10 µM,"miR-10b [1]; Table 7, MDA-MB-231, second biological replicant, 10 μM compound, mean of triplicate, read-out: n-fold increase in luciferase expression, Mean",1.97
same,fold induction at 10 µM,"miR-10b [1]; Table 7, MDA-MB-231, second biological replicant, 10 μM compound, replicate #1, read-out: n-fold increase in luciferase expression, #1",2.99
same,fold induction at 10 µM,"miR-10b [1]; Table 7, MDA-MB-231, second biological replicant, 10 μM compound, replicate #2, read-out: n-fold increase in luciferase expression, #2",2.24
same,fold induction at 10 µM,"miR-10b [1]; Table 7, MDA-MB-231, second biological replicant, 10 μM compound, replicate #3, read-out: n-fold increase in luciferase expression, #3",0.69
same,fold induction at 10 µM,"miR-10b [2]; Table 3, MCF7, 10 μM compound, vs negative control (DMSO), mean of triplicate, read-out: n-fold increase in luciferase expression, Mean",2.5
same,fold induction at 10 µM,"miR-10b [2]; Table 3, MCF7, 10 μM compound, vs negative control (DMSO), replicate #1, read-out: n-fold increase in luciferase expression, #1",2.74
same,fold induction at 10 µM,"miR-10b [2]; Table 3, MCF7, 10 μM compound, vs negative control (DMSO), replicate #2, read-out: n-fold increase in luciferase expression, #2",2.52
same,fold induction at 10 µM,"miR-10b [2]; Table 3, MCF7, 10 μM compound, vs negative control (DMSO), replicate #3, read-out: n-fold increase in luciferase expression, #3",2.25
same,fold induction at 10 µM,"miR-10b [2]; Table 4, MCF7, 10 μM compound, vs negative control (DMSO), mean of triplicate, read-out: n-fold increase in luciferase expression, Mean",1.97
same,fold induction at 10 µM,"miR-10b [2]; Table 4, MCF7, 10 μM compound, vs negative control (DMSO), replicate #1, read-out: n-fold increase in luciferase expression, #1",2.56
same,fold induction at 10 µM,"miR-10b [2]; Table 4, MCF7, 10 μM compound, vs negative control (DMSO), replicate #2, read-out: n-fold increase in luciferase expression, #2",1.58
same,fold induction at 10 µM,"miR-10b [2]; Table 4, MCF7, 10 μM compound, vs negative control (DMSO), replicate #3, read-out: n-fold increase in luciferase expression, #3",1.78
same,fold induction at 10 µM,"miR-10b [2]; Table 6, MCF7, second biological replicant, 10 μM compound, mean of triplicate, read-out: n-fold increase in luciferase expression, Mean",17.9
same,fold induction at 10 µM,"miR-10b [2]; Table 6, MCF7, second biological replicant, 10 μM compound, replicate #1, read-out: n-fold increase in luciferase expression, #1",25.6
same,fold induction at 10 µM,"miR-10b [2]; Table 6, MCF7, second biological replicant, 10 μM compound, replicate #2, read-out: n-fold increase in luciferase expression, #2",14.6
same,fold induction at 10 µM,"miR-10b [2]; Table 6, MCF7, second biological replicant, 10 μM compound, replicate #3, read-out: n-fold increase in luciferase expression, #3",13.4
same,CLint scaled at 1 μM,[3],8.8 mL/min/kg
same,half-life at 1 μM,[3],3.28 h
same,CLint scaled at 1 μM,[4],20.4 mL/min/kg
same,half-life at 1 μM,[4],2.03 h
same,CLint scaled at 1 μM,[5],86.5 mL/min/kg
same,half-life at 1 μM,[5],1.05 h
